For experiment [1], the target named is CDK6/cyclin D1 (Homo sapiens, UniProt Q00534). The experiment is described as follows: Biochemical kinase inhibition test, CDK6/cyclin D1 (similar method). As for the experimental part: Potency determination of biochemical kinase inhibition test. Kinase activity test and IC50 determination. Firstly, 10 ng of recombinant CDK4/Cyclin D1 (Life Technologies PV4204) was diluted in kinase buffer (20 mM Tris pH 7.5, 10 mM MgCl2, 0.01% NP-40, 2 mM DTT), and was incubated with inhibitors at the indicated concentration at room temperature for 30 minutes. The kinase reaction was initiated by adding […] (1.5 μM) of recombinant retinoblastoma protein, 5 μM ATP and 10μ Ci γ-32P-ATP. The reaction was incubated at 30° C. for 20 minutes, and was terminated by adding 2× Laemmli sample buffer, heated at 95° C. for three minutes, and the resulting solution was dissolved with 12% acrylamide SDS-PAGE and autoradiographed. A densitometer (Bio-Rad) was used to quantify the corresponding phosphorylated substrate protein bands. The resulting density values were plotted as a function of the log drug concentration using Prism 4 Graphpad software. IC50 values were determined by plotting a non-linear regression curve with a variable slope.
The inhibitory activity of the compounds disclosed herein against CDK6/cyclin D1 was tested by a similar method.
The compounds were tested in a three-fold serial dilution from the starting concentration of 10 μM, over 10-fold of IC50. The control compound, staurosporine, was tested in a four-fold serial dilution from the starting concentration of 20 μM, over 10-fold of IC50. These reactions took place in the presence of 10 μM ATP.

The target in experiment [2] is T1, recombinant CDK4/Cyclin D1 (Homo sapiens, UniProt P11802).
T1 construct: purchased Life Technologies PV4204
In words: Biochemical kinase inhibition test, CDK4/Cyclin D1 (32P-ATP, retinoblastoma protein substrate). The note with it: three-fold serial dilution from 10 μM; 10 μM ATP; read-out: CDK4/D1 (nM), enzyme inhibitory activity IC50.

The structures appear in SMILES notation.

Sequence of CDK6/cyclin D1 (Q00534 whole entry, species assumed): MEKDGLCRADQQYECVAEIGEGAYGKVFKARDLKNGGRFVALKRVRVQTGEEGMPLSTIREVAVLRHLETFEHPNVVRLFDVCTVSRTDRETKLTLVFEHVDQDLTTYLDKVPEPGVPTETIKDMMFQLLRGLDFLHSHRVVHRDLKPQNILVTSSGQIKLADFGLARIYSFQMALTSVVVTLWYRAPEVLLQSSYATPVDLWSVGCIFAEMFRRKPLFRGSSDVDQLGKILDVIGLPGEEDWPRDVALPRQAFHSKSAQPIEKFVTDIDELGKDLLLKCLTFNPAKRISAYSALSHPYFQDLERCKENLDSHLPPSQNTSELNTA
Sequence of CDK6/cyclin D1 (P24385 whole entry partner, species assumed): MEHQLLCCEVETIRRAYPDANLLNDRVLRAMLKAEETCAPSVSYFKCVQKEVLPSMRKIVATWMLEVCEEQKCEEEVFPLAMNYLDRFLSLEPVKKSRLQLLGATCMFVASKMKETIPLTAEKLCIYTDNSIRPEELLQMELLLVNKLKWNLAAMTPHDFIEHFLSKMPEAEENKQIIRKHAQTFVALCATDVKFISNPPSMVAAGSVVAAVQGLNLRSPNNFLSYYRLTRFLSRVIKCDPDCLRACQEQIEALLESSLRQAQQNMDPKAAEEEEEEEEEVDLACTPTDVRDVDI
T1 sequence (P11802 whole entry): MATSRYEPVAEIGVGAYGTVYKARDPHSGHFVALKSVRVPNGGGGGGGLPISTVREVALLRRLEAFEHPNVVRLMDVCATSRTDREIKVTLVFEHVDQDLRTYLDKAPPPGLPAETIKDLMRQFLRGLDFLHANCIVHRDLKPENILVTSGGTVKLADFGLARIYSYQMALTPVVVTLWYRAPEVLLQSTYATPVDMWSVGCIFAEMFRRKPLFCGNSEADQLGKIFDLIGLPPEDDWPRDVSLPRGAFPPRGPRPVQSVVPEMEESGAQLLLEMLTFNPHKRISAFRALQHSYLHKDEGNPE
T1 sequence (P24385 whole entry partner): as the sequence (P24385 whole entry partner, species assumed) above

Take `COc1cc(OC)cc(-c2cc3cnc(Nc4ccc(N5CCOCC5)cn4)nc3c3c2cnn3C(C)C)c1` [Compound I-82]: the “selectivity for CDK6/cyclin D1 relative to CDK4/cyclin D1 (enzyme inhibitory activity)” value in experiment [1] (CDK6/cyclin D1 versus CDK4/cyclin D1) is “about 3 times”. In addition, the IC50 in experiment [1] (three-fold serial dilution from 10 μM, 10 μM ATP, read-out: CDK6/D1 (nM), enzyme inhibitory activity IC50) fell in the range of 1 to 5 nM; in experiment [2], 5 to 10 nM.

These data come from patent US11993604B2, “Substituted pyrazolo[4,3-H]quinazolines as protein kinase inhibitors” (SHENGKE PHARMACEUTICALS (JIANGSU) LTD., priority 2017, dated 2024).
